# Assay results from patent publication EP4717275A1, “ANTI-LUNG CANCER COMBINED DRUG AND USE THEREOF” (Gunagdong Yinzhu Pharmaceutical Technology Co., Ltd, priority 2023, dated 2024).
# Where “and” joins values, the source holds several entries; their conditions need not be identical. Identical values can stand only once. Like-named read-outs stand apart in the source and are kept apart here. Marks after values point to notes of the source that are not given here.
# Assays:
# [1] = tested on: human lung cancer NCI-H1975 xenografts; assay: Therapeutic effect in vivo on NCI-H1975 xenografts in nude mice; parameters: species or system BALB/c Nude mice; conditions: PO
# Description: BALB/c Nude mice, female, 8-10 weeks old, 18-20g. […] Table 2 Experimental design of therapeutic effect of the drugs in vivo […] NCI-H1975 cells were cultured in RPMI 1640 medium supplemented with 10% FBS and maintained in a 37°C, 5% CO2 humidified incubator. Log-phase NCI-H1975 cells were harvested, resuspended in RPMI 1640 basal medium containing 50% Matrigel, and adjusted to a concentration of 2 × 10^7 cells/mL. Under aseptic conditions, 0.1 mL of the cell suspension was injected subcutaneously into the right flank of mice at a concentration of 2 × 10^6 cells/0.1 mL/mouse. […] The grouping day was designated as Day 0, and administration commenced according to animal body weight. […] Animal body weight and tumor volume were measured twice weekly throughout the experiment. Tumor length and width were measured using a digital caliper, with tumor volume estimated from these measurements. After the final weighing on Day 21, remaining animals were euthanized with CO2. Tumors were weighed, photographed, and the experiment concluded. […] Tumor growth inhibition rate (%TGITV) is calculated as: […] Relative Tumor Volume (RTV) is calculated as Vt/V0, where V0 is the tumor volume at grouping and Vt is the tumor volume at each measurement. Relative Tumor Growth Rate (%T/CRTV) is calculated as TRTV/CRTV × 100%, where TRTV is the RTV of the treatment group and CRTV is the RTV of the negative control group. Tumor growth inhibition rate (%TGITW) is calculated as: ([…] × 100%, where TWc is the average tumor weight in the negative control group and TWT is the average tumor weight in the treatment group. […] Drug-related animal mortality exceeding 20% indicates severe toxicity at that dose. All experimental data in this study are expressed as Mean ± SEM. The evaluation of the combination index (CI) of drugs relies on the following equation: […]), wherein E(A+B) is the inhibition rate of combination drug, EA and EB is the inhibition rate of drug A and drug B respectively. E(A+B) in the equation represents 'measured synergistic effect' and (EA+EB-EA×EB) is 'expected synergistic effect'. CI=0.85-1.15 indicates a mere addition of the effect of two drugs, >1.15 indicates enhancement (or synergy), and <0.85 indicates antagonism. • Combination index of tumor growth inhibition: CAI, 40mg/kg + AZD9291, 1mg/kg: 1.27; […] CAI, 40mg/kg + AZD9291, 1mg/kg: 1.20; […]
# [2] = format: in vivo
# Description: (§1) BALB/c Nude mice, female, 8-10 weeks old, 18-20g. The variation of the body weight is ±20% around average body weight. 80 mice were inoculated and 60 mice were grouped.
# (§2) The grouping day was designated as Day 0, and administration commenced according to animal body weight.
# Animal body weight and tumor volume were measured twice weekly throughout the experiment. Tumor length and width were measured using a digital caliper, with tumor volume estimated from these measurements.
# Clinical observations were recorded daily to assess overall health status, weight abnormalities, behavioral changes, and other treatment-related adverse reactions.
# In accordance with animal welfare regulations, animals meeting any of the following criteria during the study were removed from the experimental group and euthanized: 1. Body weight loss exceeding 20% compared to Day 0 (BWL ≥ 20%); 2. Severe adverse reactions such as blindness or paralysis; 3. Tumor volume exceeding 2000 mm^3; 4.
# The animal body weight change rate (%BWC) is calculated as: (BWt - BW0) / BW0 × 100%, where BWt is the animal body weight at each measurement and BW0 is the animal body weight at grouping.
# According to China's NMPA Technical Guidance Principles for Non-clinical Studies of Cytotoxic Antineoplastic Drugs (November 2006), %T/CRTV ≤ 40% and statistically significant P < 0.05 indicate efficacy. Drug-related animal mortality exceeding 20% indicates severe toxicity at that dose.
# All experimental data in this study are expressed as Mean ± SEM.
# [3] = tested on: NCI-H2228 cell; assay: CCK8 proliferation assay with combination index analysis; format: cell-based, human; conditions: Alectinib alone
# Description: CCK8 method was used to evaluate the effect of the drugs towards proliferation of lung cancer cell line (NCI-H2228 cell). The cellular viability with different concentration of drug was assayed and the 50% inhibitory concentration was calculated.
# Emerge NCI-H2228 cells (purchased from American Type Culture Collection (ATCC, Manassas, VA, USA)) from liquid nitrogen and thaw in a 37°C water bath. After thawing, culture cells in 1640 medium.
# When cell density reached 90% confluence in culture medium, cells were digested with 0.25% trypsin and resuspended. After cell growth stabilized, cells in the logarithmic growth phase were harvested and counted using a cell counter and it was ensured that viability exceeded 85% for all cell lines.
# Adjust cell concentration by diluting with culture medium. Add 100 µL of cell suspension to a 96-well plate to achieve a density of 3000 cells/well. Add 100 µL of PBS buffer to the wells around the cell-seeded wells.
# Incubate the 96-well plate at 37°C, 5% CO2, and 95% humidity overnight.
# Remove the cell culture plate from the incubator, aspirate the culture medium, and add the prepared drug-containing medium. Incubate at 37°C, 5% CO2, and 95% humidity for 72 hours.
# Add 10 µL of CCK-8 solution to each well of the 96-well plate. Incubate the plate in the cell culture incubator for 1.5 hours. Measure the absorbance at 450 nm using a microplate reader.
# Analyze data using GraphPad Prism 5.0 software. Fit the data using nonlinear S-curve regression to generate a dose-response curve and calculate the IC50 value. [formula]
# The analysis of the combination index of the compound was performed using the median effect principle. The formula for the combination index of two compounds is: CI = (D)1/(Dx)1 + (D)2/(Dx)2 [formula]
# Where: • (D)1---- The concentration of Compound 1 when compound 1 was used with another compound and the effect X was generated; • (D)2---- The concentration of Compound 2 when compound 2 was used with another compound and the effect X was generated; • (Dx)1---- The concentration of Compound 1 when compound 1 was used alone and the effect X was generated; • (Dx)2---- The concentration of Compound 2 when compound 2 was used alone and the effect X was generated.
# The CI value enables quantitative assessment of the nature and strength of interactions between different compounds (Table 2). Interaction strength is measured using the weighted average CI (CIwt), calculated by the formula: CIwt = (CI50+2CI75+3CI90+4CI95)/10 [formula]
# Where: • CI50 ---- CI value at EC50 (concentration achieving 50% effect) • CI75, CI90, and CI95 follow the same principle, representing the CI values at EC75, EC90, and EC95, respectively.
# Evaluation of the combination effect: CI value is used to evaluate the combination effect, and the judgment method is shown in Table 7. Table 7 Judgment criteria of the results
# [4] = tested on: human lung cancer NCI-H2228 xenografts; assay: Therapeutic effect in vivo on NCI-H2228 xenografts in nude mice; parameters: species or system BALB/c Nude mice; conditions: PO
# Description: as §1
# Table 9 Experimental design of therapeutic effect of the drugs in vivo
# NCI-H2228 cells were cultured in RPMI 1640 medium supplemented with 10% FBS and maintained in a 37°C, 5% CO2 humidified incubator.
# Log-phase NCI-H2228 cells were harvested, resuspended in RPMI 1640 basal medium containing 50% Matrigel, and adjusted to a concentration of 2 × 10^7 cells/mL. Under aseptic conditions, 0.1 mL of the cell suspension was injected subcutaneously into the right flank of mice at a concentration of 2 × 10^6 cells/0.1 mL/mouse.
# When the mean tumor volume reached approximately 150 mm^3, animals were randomly grouped based on tumor volume, ensuring inter-group tumor volume variation was less than 10% of the mean.
# as §2
# (§3) The same as the therapeutic effect evaluation experiments for Examples 1-2 and Comparative Examples 1-3.
# [5] = Animal body weight, fatality and toxicity observation in the NCI-H2228 xenograft study; format: in vivo, BALB/c Nude mice
# Description: as §1, §2, §3
# [6] = %TGITV from tumor volume vs control, QD×21
# [7] = %TGITW from tumor weight vs control, QD×21
smiles,measurement,setting,value
"C=CC(=O)Nc1cc(Nc2nccc(-c3cn(C)c4ccccc34)n2)c(OC)cc1N(C)CCN(C)C [Comparative Example 1, osimertinib]",Relative tumor proliferation rate(%) Day 21,"[1]; %T/CRTV, QD×21",81.08%
same,Tumor growth inhibition rate(%) Day 21,[1]; [6],21.02%
same,Tumor inhibition rate(%) Day 21,[1]; [7],14.73%
same,"Tumor weight (g,Mean±SEM) Day 21",[1]; QD×21,1.401 ± 0.212 g
same,"Tumor volume (mm^3,Mean±SEM) Day 21","[1]; QD×21, dose per group",1394.40 ±181.52 mm^3
same,Relative tumor volume Day 21,"[1]; RTV = Vt/V0, Mean ± SEM, QD×21",8.74 ± 0.73
same,Fatality,"[2]; dead/total animals at Day 21, NCI-H1975 study, PO, QD×21",0/10 (Day 21)
same,"Average body weight (g, Mean ± SEM) Day 0","[2]; mouse, in vivo, po",19.47 ± 0.28 g
same,"Average body weight (g, Mean ± SEM) Day 21","[2]; mouse, in vivo, po",21.46 ± 0.42 g
same,"Body weight change Day 21 vs Day 0 (g, in brackets)","[2]; mouse, in vivo, po",1.99 g
same,Body weight change rate Day 21 vs Day 0,"[2]; mouse, in vivo, po",10.15%
CCc1cc2c(cc1N1CCC(N3CCOCC3)CC1)C(C)(C)c1[nH]c3cc(C#N)ccc3c1C2=O [Alectinib],IC50,"[3]; single plates 1-3, 72 hours, read-out: IC50 (Alectinib)",471 nM and 546 nM
same,IC50,"[3]; Homo sapiens, NCI-H2228, 72 h, average of 3 plates, read-out: IC50 (Alectinib)",527 nM
same,IC50,"[3]; Homo sapiens, NCI-H2228, 72 h, single plates 1-3, read-out: IC50 (Alectinib)",563 nM
same,Relative tumor proliferation rate(%) Day 21,"[4]; %T/CRTV, QD×21",59.77%
same,Tumor growth inhibition rate(%) Day 21,[4]; [6],41.23%
same,Tumor inhibition rate(%) Day 21,[4]; [7],49.14%
same,"Tumor volume (mm^3,Mean±SEM) Day 21","[4]; QD×21, dose per group",863.95± 98.37* mm^3
same,"Tumor weight (g,Mean±SEM) Day 21","[4]; QD×21, listed as Comparative Example 4",0.444 ± 0.049 g
same,Relative tumor volume Day 21,"[4]; RTV = Vt/V0, Mean ± SEM, QD×21",5.23± 0.32
same,Fatality,"[5]; dead/total animals at Day 21, NCI-H2228 study, PO, QD×21",0/10 (Day 21)
same,inhibitory effect on animal weight gain,"[5]; mouse, in vivo",slight inhibition effect on animal body weight
same,"Average body weight (g, Mean ± SEM) Day 0","[5]; mouse, in vivo, po",22.48 ± 0.33 g
same,"Average body weight (g, Mean ± SEM) Day 21","[5]; mouse, in vivo, po",22.20 ± 0.41 g
same,"Body weight change Day 21 vs Day 0 (g, in brackets)","[5]; mouse, in vivo, po",-0.28 g
same,Body weight change rate Day 21 vs Day 0,"[5]; mouse, in vivo, po",-1.13%
